Calls of active or inactive are those of the source. The rule behind the calls is not given here.
How the values were obtained:
Mus musculus [1] = experiment: Immunostimulatory activity in ICR mouse assessed as induction of IL-6 release at 100 uM, iv after 2 hrs by ELISA; type: functional, organism-based
Mus musculus [2] = experiment: Immunostimulatory activity in ICR mouse assessed as induction of MIP-1beta release at 100 uM, iv after 2 hrs by ELISA; type: functional, organism-based
Macrophage [3] = experiment: Immunostimulatory activity in ICR mouse macrophage assessed as induction of phagocytic activity at 50 uM after 2 hrs by fluorescent microsphere assay; type: functional, cell-based
Macrophage [4] = experiment: Immunostimulatory activity in ICR mouse macrophage assessed as induction of phagocytic activity measuring MIP-1beta secretion at 50 uM after 2 hrs by ELISA; type: functional, cell-based
Macrophage [5] = experiment: Immunostimulatory activity in ICR mouse macrophage assessed as induction of phagocytic activity measuring IL-6 secretion at 50 uM after 2 hrs by ELISA; type: functional, cell-based
[6] = Antitumor activity against mouse B16F0 cells allografted in C57BL/6 mouse assessed as inhibition of lung metastasis at 100 ug, iv administered at 7-day interval over 14 days prior to tumor implantation measured on day 21 relative to control; type: functional
Mus musculus [7] = experiment: Toxicity in mouse assessed as mortality at 50 mg, ip administered at 7-day interval; type: organism-based; conditions: in vivo
Mus musculus [8] = experiment: Antitumor activity against mouse B16F0 cells allografted in C57BL/6 mouse assessed as inhibition of lung metastasis at 500 ug, iv administered at 7-day interval over 14 days prior to tumor implantation measured on day 28 relative to control; type: functional
THP-1 [9] = experiment: Immunostimulatory activity in human THP1 cells assessed as induction of MIP-1beta release at 100 uM after 3 hrs by ELISA; type: functional, cell-based
Salmonella typhimurium = experiment: Genotoxicity in Salmonella typhimurium TA98 after 30 mins by Ames test; type: toxicity, organism-based; conditions: salmonella enterica subsp. enterica serovar typhimurium, 0.5 h
[10] = Antitumor activity against mouse B16F0 cells allografted in C57BL/6 mouse assessed as inhibition of lung metastasis at 100 ug, iv administered at 7-day interval over 14 days prior to tumor implantation measured on day 28 relative to control; type: functional
THP-1 [11] = experiment: Cytotoxicity against human THP1 cells assessed as induction of TNF-alpha release; type: cell-based
A549 = experiment: Immunostimulatory activity in human A549 cells assessed as induction of MIP-1beta release at 100 uM after 3 hrs by ELISA; type: functional, cell-based
DLD-1 = experiment: Immunostimulatory activity in human DLD1 cells assessed as induction of MIP-1beta release at 100 uM after 3 hrs by ELISA; type: functional, cell-based
Mus musculus [12] = experiment: Antitumor activity against mouse B16F0 cells allografted in C57BL/6 mouse assessed as inhibition of lung metastasis at 1000 ug, iv administered at 7-day interval over 14 days prior to tumor implantation measured on day 28 relative to control; type: functional

Row | SMILES | Activity (Mus musculus [1]) | Activity (Mus musculus [2]) | Activity (Macrophage [3]) | also measured
1 | CCCCCCCCCCCCCCC(CCCCCCCCCCCCCC)C(=O)OC[C@H]1O[C@H](O[C@H]2O[C@H](COC(=O)C(CCCCCCCCCCCCCC)CCCCCCCCCCCCCC)[C@@H](O)[C@H](O)[C@H]2O)[C@H](O)[C@@H](O)[C@@H]1O | Active | Active | – | –
2 | CCCCCCCCCC(CCCCCCCCC)CCC(=O)OC[C@H]1O[C@H](O[C@H]2O[C@H](COC(=O)CCC(CCCCCCCCC)CCCCCCCCC)[C@@H](O)[C@H](O)[C@H]2O)[C@H](O)[C@@H](O)[C@@H]1O | – | – | inactive | –
3 | CCCCCCCCCCCCCCC[C@@H](OC)[C@@H](CCCCCCCCCCCCCC)C(=O)OC[C@H]1O[C@H](O[C@H]2O[C@H](COC(=O)[C@H](CCCCCCCCCCCCCC)[C@@H](CCCCCCCCCCCCCCC)OC)[C@@H](O)[C@H](O)[C@H]2O)[C@H](O)[C@@H](O)[C@@H]1O | – | – | Active | Activity (Macrophage [4]): Active; Activity (Macrophage [5]): Active
4 | CCCCCCCCCC(CCCCCCCCC)CC(=O)OC[C@H]1O[C@H](O[C@H]2O[C@H](COC(=O)CC(CCCCCCCCC)CCCCCCCCC)[C@@H](O)[C@H](O)[C@H]2O)[C@H](O)[C@@H](O)[C@@H]1O [VIZANTIN] | Active | Active | Active | inhibition (INH) [6]: >98%; Activity (Mus musculus [7]): Non-toxic; inhibition (INH) (Mus musculus [8]): 62%; Activity (THP-1 [9]): Active; Activity (Salmonella typhimurium): Non-toxic; inhibition (INH) [10]: 57%; Activity (THP-1 [11]): Non-toxic; Activity (A549): inactive; Activity (DLD-1): inactive; inhibition (INH) (Mus musculus [12]): 66%
5 | CCCCCCCCCCCCCCC[C@@H](O)[C@@H](CCCCCCCCCCCCCC)C(=O)OC[C@H]1O[C@H](O[C@H]2O[C@H](COC(=O)[C@H](CCCCCCCCCCCCCC)[C@H](O)CCCCCCCCCCCCCCC)[C@@H](O)[C@H](O)[C@H]2O)[C@H](O)[C@@H](O)[C@@H]1O | Active | Active | Active | Activity (THP-1 [9]): inactive; Activity (A549): inactive; Activity (DLD-1): inactive; Activity (Macrophage [4]): Active; inhibition (INH) (Mus musculus [12]): 41%; Activity (Macrophage [5]): Active
6 | CCCCCCCCCCCCCC(CCCCCCCCCCCCC)CC(=O)OC[C@H]1O[C@H](O[C@H]2O[C@H](COC(=O)CC(CCCCCCCCCCCCC)CCCCCCCCCCCCC)[C@@H](O)[C@H](O)[C@H]2O)[C@H](O)[C@@H](O)[C@@H]1O | Active | Active | – | –
7 | CCCCCCCCCCCC(CCCCCCCCCCC)C(=O)OC[C@H]1O[C@H](O[C@H]2O[C@H](COC(=O)C(CCCCCCCCCCC)CCCCCCCCCCC)[C@@H](O)[C@H](O)[C@H]2O)[C@H](O)[C@@H](O)[C@@H]1O | Active | Active | – | –
8 | CCCCCCCCCCCCC(CCCCCCCCCCCC)CC(=O)OC[C@H]1O[C@H](O[C@H]2O[C@H](COC(=O)CC(CCCCCCCCCCCC)CCCCCCCCCCCC)[C@@H](O)[C@H](O)[C@H]2O)[C@H](O)[C@@H](O)[C@@H]1O | Active | Active | – | –
9 | CCCCCCCCCCCCCCCCC(CCCCCCCCCCCCCC)C(=O)OC[C@H]1O[C@H](O[C@H]2O[C@H](COC(=O)C(CCCCCCCCCCCCCC)CCCCCCCCCCCCCCCC)[C@@H](O)[C@H](O)[C@H]2O)[C@H](O)[C@@H](O)[C@@H]1O (stereo not given in full) | Active | Active | Active | –
10 | CCCCCCCCCCCCCCC(CCCCCCCCCCCCCC)CC(=O)OC[C@H]1O[C@H](O[C@H]2O[C@H](COC(=O)CC(CCCCCCCCCCCCCC)CCCCCCCCCCCCCC)[C@@H](O)[C@H](O)[C@H]2O)[C@H](O)[C@@H](O)[C@@H]1O | Active | Active | – | –
11 | CCCCCCCCCCC(CCCCCCCCCC)CC(=O)OC[C@H]1O[C@H](O[C@H]2O[C@H](COC(=O)CC(CCCCCCCCCC)CCCCCCCCCC)[C@@H](O)[C@H](O)[C@H]2O)[C@H](O)[C@@H](O)[C@@H]1O | Active | Active | – | –
12 | CCCCCCCCCCCC(=O)O | – | – | inactive | –
13 | CCCCCCCCCCCC(CCCCCCCCCCC)CC(=O)OC[C@H]1O[C@H](O[C@H]2O[C@H](COC(=O)CC(CCCCCCCCCCC)CCCCCCCCCCC)[C@@H](O)[C@H](O)[C@H]2O)[C@H](O)[C@@H](O)[C@@H]1O | Active | Active | – | –
14 | CCCCCCCCCC(CCCCCCCCC)C(=O)OC[C@H]1O[C@H](O[C@H]2O[C@H](COC(=O)C(CCCCCCCCC)CCCCCCCCC)[C@@H](O)[C@H](O)[C@H]2O)[C@H](O)[C@@H](O)[C@@H]1O | Active | Active | – | –
15 | CCCCCCCCCCCCCCCCC(CCCCCCCCCCCCCCCC)C(=O)OC[C@H]1O[C@H](O[C@H]2O[C@H](COC(=O)C(CCCCCCCCCCCCCCCC)CCCCCCCCCCCCCCCC)[C@@H](O)[C@H](O)[C@H]2O)[C@H](O)[C@@H](O)[C@@H]1O | Active | Active | – | –
16 | CCCCCCCCCCCCCCCC(CCCCCCCCCCCCCCC)C(=O)OC[C@H]1O[C@H](O[C@H]2O[C@H](COC(=O)C(CCCCCCCCCCCCCCC)CCCCCCCCCCCCCCC)[C@@H](O)[C@H](O)[C@H]2O)[C@H](O)[C@@H](O)[C@@H]1O | Active | Active | – | –
17 | CCCCCCCCC(CCCCCCCC)C(=O)OC[C@H]1O[C@H](O[C@H]2O[C@H](COC(=O)C(CCCCCCCC)CCCCCCCC)[C@@H](O)[C@H](O)[C@H]2O)[C@H](O)[C@@H](O)[C@@H]1O | Active | Active | – | –
18 | CCCCCCCCCCCCC(CCCCCCCCCCCC)C(=O)OC[C@H]1O[C@H](O[C@H]2O[C@H](COC(=O)C(CCCCCCCCCCCC)CCCCCCCCCCCC)[C@@H](O)[C@H](O)[C@H]2O)[C@H](O)[C@@H](O)[C@@H]1O | Active | Active | – | –
19 | CCCCCCCCCCCCCC(CCCCCCCCCCCCC)C(=O)OC[C@H]1O[C@H](O[C@H]2O[C@H](COC(=O)C(CCCCCCCCCCCCC)CCCCCCCCCCCCC)[C@@H](O)[C@H](O)[C@H]2O)[C@H](O)[C@@H](O)[C@@H]1O | Active | Active | – | –
20 | CCCCCCCCCCC(CCCCCCCCCC)C(=O)OC[C@H]1O[C@H](O[C@H]2O[C@H](COC(=O)C(CCCCCCCCCC)CCCCCCCCCC)[C@@H](O)[C@H](O)[C@H]2O)[C@H](O)[C@@H](O)[C@@H]1O | Active | Active | Active | Activity (THP-1 [9]): inactive; Activity (A549): inactive; Activity (DLD-1): inactive
21 | CCCCCCCCC(CCCCCCCC)CCC(=O)OC[C@H]1O[C@H](O[C@H]2O[C@H](COC(=O)CCC(CCCCCCCC)CCCCCCCC)[C@@H](O)[C@H](O)[C@H]2O)[C@H](O)[C@@H](O)[C@@H]1O | – | – | inactive | –
22 | CCCCCCCCC(CCCCCCCC)CC(=O)OC[C@H]1O[C@H](O[C@H]2O[C@H](COC(=O)CC(CCCCCCCC)CCCCCCCC)[C@@H](O)[C@H](O)[C@H]2O)[C@H](O)[C@@H](O)[C@@H]1O | Active | Active | – | –

Reference: ChEMBL document CHEMBL2311486, “Development of vizantin, a safe immunostimulant, based on the structure-activity relationship of trehalose-6,6'-dicorynomycolate” (J Med Chem, 2013)
